For assay [1], the system named is chronic hypoxic-pulmonary artery hypertension (CH-PAH). Put plainly: Mean pulmonary arterial pressure (PAP) in chronic hypoxic (CH-PAH) rat model. Format: in vivo. The following applies: for reversal of PA hypertension: in contrast to testosterone, estradiol, pregnenolone, protocol not restated; for effect on PAP, i.v. administration: 3 mg/kg, same intravascular protocol as for DHEA, CH-DHEA rats (so in the source). The procedure: To study the mechanisms of PAH and its possible treatments, an animal model was utilized. The placement of rats in a hypobaric chamber for 7 to 21 days induced chronic hypoxia, resulting in CH-PAH, a useful model system for studying mammalian PAH.
The rat model experiments were performed as follows. Adult male Wistar rats (220-240 g) were randomized into five groups. […] Intravascular administration was performed via the catheter inserted in the right jugular vein.

In the next assay the test system is PASMCs from CH rats. Put plainly: In vitro DHEA treatment of PASMCs, resting [Ca2+]i, with K channel blockers and pathway inhibitors. The following applies: for effect on the DHEA-induced [Ca2+]i decrease: DHEA plus blocker/inhibitor: IbTx, agitoxin-2, ODQ 10 μM, genistein 1 μM, 476485 1 μM, DTT. Format: cell-based, rat. The procedure: The heart and lungs were removed and intrapulmonary arteries (IPAs) (150-300 μm of internal diameter) were then dissected. The adventitial and intimal layers were removed. For contraction experiments, rings (3 mm in length) were prepared.
As mentioned earlier, Ca^2+ is thought to play an important role in the response to chronic hypoxia. To measure the effects of DHEA on [Ca^2+]i of individual PASMCs, a [Ca^2+]i-sensitive fluorophore, indo-1 (Calbiochem, San Diego, Calif.), was employed. […] The recording system included a Nikon Diaphot inverted microscope fitted with epifluorescence.
To further examine how DHEA functions to decrease the [Ca^2+]i in PASMCs, the following experiment was performed.

Where “and” joins values, the source holds several entries; their conditions need not be identical. Equal entries are not always repeated. Entries after “also recorded” stand apart in the source; their conditions may differ.

Consider `C[C@]12CC[C@H](O)C[C@@H]1CC[C@@H]1[C@@H]2CC[C@]2(C)C(=O)CC[C@@H]12` [3β-hydroxy-5α-androstan-17-one], for which the “reversal of PA hypertension” value in assay [1] was “did reverse PA hypertension”. Same read-out and setting: then `C[C@H]1CC[C@@]2(C)C(=CC[C@@H]3[C@@H]2CC[C@]2(C)C(=O)CC[C@@H]32)C1` [3βmethyl-5-androsten-17-one], with “did reverse PA hypertension”. With `Nc1ccncc1` [4-AP, 4-amino-pyridine], the “block of the DHEA-induced [Ca2+]i decrease” value in the assay on PASMCs from CH rats (combined IbTx 100 nM and 4-AP 1 mM) was determined as 100%. Besides, the “effect on the DHEA effect on resting [Ca2+]i” value with PASMCs from CH rats (combined presence of 4-AP and IbTx) is on record as “almost totally abolished”. For the molecule `C[C@]12CC[C@H]3[C@@H](CC=C4C[C@@H](O)CC[C@@]43C)[C@@H]1CC[C@@H]2O` [5-androsten-3β,17β-diol], the “reversal of PA hypertension” value in assay [1] is on record as “did reverse PA hypertension”. Regarding `O[C@@H](CS)[C@@H](O)CS` [DTT], in the assay on PASMCs from CH rats, the “effect on the DHEA-induced [Ca2+]i decrease” value (shortened to “effect … [Ca2+]i decrease”) is recorded as “totally inhibited; also recorded: suppressed; also recorded: inhibits the effect of DHEA”. In addition, the “elevation of the resting [Ca2+]i” value in the assay with PASMCs from CH rats (DTT with DHEA, PASMCs) came to 23 nM.

Consider `O=c1onc2cnc3ccccc3n12` [ODQ, 1H-[1,2,4]oxadiazolol[4,3,-a]quinoxalin-1-one], for which, in the assay with PASMCs from CH rats, the “effect … [Ca2+]i decrease” value is given as “did not alter; also recorded: no effect”. As for `O=c1c(-c2ccc(O)cc2)coc2cc(O)cc(O)c12` [genistein, Genistein], the “effect … [Ca2+]i decrease” value in the assay with PASMCs from CH rats is reported as “did not alter; also recorded: no effect”. On to `CC(=O)[C@H]1CC[C@H]2[C@@H]3CC=C4C[C@@H](O)CC[C@]4(C)[C@H]3CC[C@]12C` [pregnenolone], for which the “effect on PAP, i.v. administration” value in assay [1] was “did not reveal any effect”. In the case of `C[C@]12CC[C@H]3[C@@H](CCC4=CC(=O)CC[C@@]43C)[C@@H]1CC[C@@H]2O` [testosterone], in assay [1], the “effect on PAP, i.v. administration” value is on record as “did not reveal any effect”. On to agitoxin-2, for which the “effect … [Ca2+]i decrease” value with PASMCs from CH rats is “no effect”.

Turning to “iberiotoxin (QFTDVDCSVSKECWSVCKDLFGVDRGKCMGKKCRCYQ; UniProt P24663 1-37, looked up) [IbTx]”, the “inhibition of the DHEA-induced change of resting [Ca2+]i” value in the assay on PASMCs from CH rats (DHEA 100 μM and IbTx 100 nM, 10 min, PASMCs from CH rats) was 62% and 65%. For the same molecule, the “effect … [Ca2+]i decrease” value in the assay with PASMCs from CH rats is reported as “blocked”.

(Values after patent publication US20070232575A1, “Treatment of Pulmonary Artery Hypertension with Dhea, Dheas, Dhea Analogs, or Dhea Derivatives” (priority 2004, published 2007).)
